Test results as given in paper PMC4265155, “A highly charged region in the middle domain of plant endoplasmic reticulum (ER)-localized heat-shock protein 90 is required for resistance to tunicamycin or high calcium-induced ER stresses” (Journal of Experimental Botany, 2014).

Biological target: T1, CfGRP94 (canine GRP94 73–754Δ41) (Canis lupus, UniProt P41148, DEL287-327, form not given)
T1 construct: gene HSP90B1
Conditions: geldanamycin-sensitive activity; 25 mM HEPES pH 7.5, 5 mM MgCl2, 400 mM KCl, 0.03% Tween 20, 10% glycerol
Text: NADH-coupled ATPase assay (pyruvate kinase / lactate dehydrogenase) on CfGRP94 (canine GRP94 73–754Δ41)

T1 sequence (P41148 73-286, stated change not applied): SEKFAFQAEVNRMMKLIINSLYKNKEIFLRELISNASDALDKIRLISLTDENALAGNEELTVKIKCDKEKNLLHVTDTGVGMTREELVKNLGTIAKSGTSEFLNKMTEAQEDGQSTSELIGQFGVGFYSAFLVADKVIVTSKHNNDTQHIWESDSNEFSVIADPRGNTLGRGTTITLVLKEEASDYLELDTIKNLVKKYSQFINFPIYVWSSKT
T1 sequence (P41148 328-754, stated change not applied): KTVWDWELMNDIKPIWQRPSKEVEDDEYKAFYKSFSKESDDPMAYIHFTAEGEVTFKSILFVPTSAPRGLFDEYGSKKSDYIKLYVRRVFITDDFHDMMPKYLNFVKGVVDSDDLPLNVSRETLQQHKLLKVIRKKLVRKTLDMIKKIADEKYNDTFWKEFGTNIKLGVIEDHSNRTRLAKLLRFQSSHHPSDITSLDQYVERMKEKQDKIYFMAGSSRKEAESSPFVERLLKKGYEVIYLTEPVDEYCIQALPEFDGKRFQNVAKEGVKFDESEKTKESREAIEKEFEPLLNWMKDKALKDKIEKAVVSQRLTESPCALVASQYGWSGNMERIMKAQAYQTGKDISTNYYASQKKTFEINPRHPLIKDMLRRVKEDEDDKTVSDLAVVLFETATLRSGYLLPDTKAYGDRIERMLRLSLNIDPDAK

Nc1ncnc2c1ncn2[C@@H]1O[C@H](COP(=O)(O)OP(=O)(O)OP(=O)(O)O)[C@@H](O)[C@H]1O [ATP]
Km: 65 ± 13 µM
